# Assay results from ChEMBL document CHEMBL1146431, “Isolation and structure elucidation of ardisenone: a new, cytotoxic alkenylphenol from Ardisia iwahigensis” (J Nat Prod, 1997).
# Assays:
# Type in all cases: functional, cell-based
# [1] = Cytotoxicity against human BC1 cells by SRB assay
# Lu1 = assay: Cytotoxicity against human Lu1 cells by SRB assay
# Col2 = assay: Cytotoxicity against human Col2 cells by SRB assay
# KB = assay: Cytotoxicity against human KB cells by SRB assay
# [2] = Cytotoxicity against human vinblastine-resistant KBV1 cells by SRB assay in presence of vinblastine; conditions: KB-V1
# [3] = Cytotoxicity against human vinblastine-resistant KBV1 cells by SRB assay in absence of vinblastine; conditions: KB-V1
# LNCaP = assay: Cytotoxicity against human LNCAP cells by SRB assay
smiles,measurement,setting,value
COc1cc(O)cc(CC(=O)CCC/C=C\CCCCCCCCC(=O)c2cc(O)cc(OC)c2)c1 [ARDISENONE],IC50,[1],8.5 µg/mL
same,IC50,Lu1,4.9 µg/mL
same,IC50,Col2,15 µg/mL
same,IC50,KB,13 µg/mL
same,IC50,[2],8 µg/mL
same,IC50,[3],6.9 µg/mL
same,IC50,LNCaP,11 µg/mL
